Experimental data reported in patent US20230390274A1 (EPIRIUM BIO INC., priority 2020, published 2023).
pIC50: −log10 of the molar value.

molecular target: 15-PGDH/HPGD (Homo sapiens (Human), UniProt P15428); test: hPGDH inhibitor screening biochemical assay; conditions: 10 nM 15-PGDH/HPGD, 15 μM PGE2, 0.25 mM NAD; read-out: hPGDH: Average IC50
Experimental: A hydroxyprostaglandin dehydrogenase inhibition screening biochemical assay can be performed to assess the synthesized inhibitors provided herein. Provided herein is an exemplary biochemical assay for hPGDH inhibitor screening.
The in vitro biochemical assay can be performed in white, 384 plates in total 20 μl reaction volume consisting of 10 nM of 15-PGDH/HPGD (R&D System #5660-DH), 15 μM Prostaglandin E2 (Sigma, Cat #P5640-10MG) and 0.25 mM β-Nicotinamide adenine dinucleotide sodium salt (Sigma, Cat #N0632-5G) made in reaction buffer (50 mM Tris-HCl, pH 7.5, 0.01% Tween 20) at 10-point dose response curve for test/tool compounds. Briefly, 5 μl (4×) of compounds solution and 5 μl (final concentration, 10 nM) of enzyme solution is added to white 384 well plates and incubated for 10 mins at 37° C. 5 μl (4×) of Prostaglandin E2 and 5 μl (4×) of β-Nicotinamide adenine dinucleotide sodium salt is added to the wells and incubated for 10 mins at rt. Fluorescence is recorded at ex/em=340 nm/485 nm. The percentage (%) inhibition of enzyme activity was determined relative to […] (1% DMSO) and IC50 was calculated using GraphPad prism software (four parameter-variable slope equation).

Sequence of 15-PGDH/HPGD (P15428 whole entry): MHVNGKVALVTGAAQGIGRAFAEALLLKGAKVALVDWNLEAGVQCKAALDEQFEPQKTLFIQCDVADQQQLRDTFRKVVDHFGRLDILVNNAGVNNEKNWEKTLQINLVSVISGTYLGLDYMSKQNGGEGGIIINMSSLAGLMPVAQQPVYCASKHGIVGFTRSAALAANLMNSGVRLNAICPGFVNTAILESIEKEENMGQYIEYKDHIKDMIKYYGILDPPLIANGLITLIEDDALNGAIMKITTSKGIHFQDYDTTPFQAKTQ

`Cc1c(C(=O)N2CCC(F)CC2)cnc2c1ccn2-c1cnccn1` [A-97, (4-fluoropiperidin-1-yl)(4-methyl-1-(pyrazin-2-yl)-1H-pyrrolo[2,3-b]pyridin-5-yl)methanone] and `O=C(c1cnc2c(ccn2-c2cnccn2)c1Cl)N1CCC(F)CC1` [A-172] cannot be ordered by pIC50: greater than 7.00 for the first, greater than 7.00 for the second.

`CS(=O)(=O)n1ccc2cc(C(=O)N3CCCCC3)cnc21` [A-110, (1-(methylsulfonyl)-1H-pyrrolo[2,3-b]pyridin-5-yl)(piperidin-1-yl)methanone] and `Cc1ccc(S(=O)(=O)n2ccc3cc(C(=O)N4CCCCC4)cnc32)cc1` [A-111, piperidin-1-yl(1-tosyl-1H-pyrrolo[2,3-b]pyridin-5-yl)methanone] cannot be ordered by pIC50: no more than 6.00 for the first, no more than 6.00 for the second.

`O=C(c1cnc2c(ccn2-c2ccn3ccnc3c2)c1)N1CCCCC1` [A-112] and `Nc1cc(-n2ccc3cc(C(=O)N4CCCCC4)cnc32)ccn1` [A-154] cannot be ordered by pIC50: greater than 7.00 for the first, greater than 7.00 for the second.

`Cc1cncc(-n2ccc3cc(C(=O)N4CCCCC4)cnc32)c1` [A-113] and `O=C(c1cnc2c(ccn2-c2cncc(Cl)c2)c1)N1CCCCC1` [A-144] cannot be ordered by pIC50: greater than 7.00 for the first, greater than 7.00 for the second.

`N#Cc1ccc(-n2ccc3cc(C(=O)N4CCC(F)CC4)cnc32)cc1` [A-114] and `N#Cc1cccc(-n2ccc3cc(C(=O)N4CCC(F)CC4)cnc32)c1` [A-115] cannot be ordered by pIC50: greater than 7.00 for the first, greater than 7.00 for the second.

`CN(C)c1ccc(-n2ccc3cc(C(=O)N4CCCCC4)cnc32)cn1` [A-116] and `O=C(c1cnc2c(ccn2-c2ccc(O)nc2)c1)N1CCCCC1` [A-155] cannot be ordered by pIC50: greater than 7.00 for the first, greater than 7.00 for the second.

`N#Cc1ccc(-n2ccc3cc(C(=O)N4CCCCC4)cnc32)cn1` [A-117] and `Nc1ccc(-n2ccc3cc(C(=O)N4CCCCC4)cnc32)cn1` [A-158] cannot be ordered by pIC50: greater than 7.00 for the first, greater than 7.00 for the second.

`N#Cc1ncc(-n2ccc3cc(C(=O)N4CCCCC4)cnc32)cn1` [A-118] and `NC(=O)c1ncc(-n2ccc3cc(C(=O)N4CCCCC4)cnc32)cn1` [A-125] cannot be ordered by pIC50: greater than 7.00 for the first, greater than 7.00 for the second.

`O=C(c1cnc2c(ccn2-c2ccc3[nH]ncc3c2)c1)N1CCCCC1` [A-119, (1-(1H-indazol-5-yl)-1H-pyrrolo[2,3-b]pyridin-5-yl)(piperidin-1-yl)methanone] and `COc1cccc(-n2ccc3cc(C(=O)N4CCCCC4)cnc32)c1` [A-143] cannot be ordered by pIC50: greater than 7.00 for the first, greater than 7.00 for the second.

`COc1ccc(Cn2ncc3cc(-n4ccc5cc(C(=O)N6CCCCC6)cnc54)ccc32)cc1` [A-120] and `COc1ccc(Cn2cc3cc(-n4ccc5cc(C(=O)N6CCCCC6)cnc54)ccc3n2)cc1` [A-121] cannot be ordered by pIC50: greater than 7.00 for the first, greater than 7.00 for the second.

`NC(=O)c1ccc(-n2ccc3cc(C(=O)N4CCC(F)CC4)cnc32)cc1` [A-122] and `NC(=O)c1cccc(-n2ccc3cc(C(=O)N4CCC(F)CC4)cnc32)c1` [A-123] cannot be ordered by pIC50: greater than 7.00 for the first, greater than 7.00 for the second.

`NC(=O)c1ccc(-n2ccc3cc(C(=O)N4CCCCC4)cnc32)cn1` [A-124] and `NC(=O)c1ccc(-n2ccc3cc(C(=O)N4CCCCC4)cnc32)cc1` [A-159] cannot be ordered by pIC50: greater than 7.00 for the first, greater than 7.00 for the second.

`NC(=O)c1ccc(-n2ccc3cc(C(=O)N4CCC(F)(F)CC4)cnc32)cc1` [A-126] and `CNC(=O)c1ccc(-n2ccc3cc(C(=O)N4CCCCC4)cnc32)cc1` [A-140] cannot be ordered by pIC50: greater than 7.00 for the first, greater than 7.00 for the second.

`O=C(c1cnc2c(ccn2-c2ccc(CO)cc2)c1)N1CCC(F)CC1` [A-127] and `O=C(c1cnc2c(ccn2-c2cccc(CO)c2)c1)N1CCC(F)CC1` [A-128] cannot be ordered by pIC50: greater than 7.00 for the first, greater than 7.00 for the second.

`CC(C)(O)c1ccc(-n2ccc3cc(C(=O)N4CCCCC4)cnc32)cc1` [A-130] and `CN(C)c1ccc(-n2ccc3cc(C(=O)N4CCCCC4)cnc32)cc1` [A-150] cannot be ordered by pIC50: greater than 7.00 for the first, greater than 7.00 for the second.

`COc1ccc(-n2ccc3cc(C(=O)N4CCC(c5ccccc5)CC4)cnc32)cc1` [A-134] and `COc1ccc(-n2ccc3cc(C(=O)N4CC(c5ccccc5)C4)cnc32)cc1` [A-135] cannot be ordered by pIC50: no more than 6.00 for the first, no more than 6.00 for the second.

First: COc1ccc(-n2ccc3cc(C(=O)N4CCN(CC(F)(F)F)CC4)cnc32)cc1 [A-136]
Second: COc1ccc(-n2ccc3cc(C(=O)N4CCC(F)CC4)cnc32)cc1 [A-142]
The pIC50 of the first is lower: no more than 6.00 for the first, greater than 7.00 for the second.

`COc1ccc(-n2ccc3cc(C(=O)N4C[C@H](C)C[C@H](C)C4)cnc32)cc1` [A-138, ((3R,5S)-3,5-dimethylpiperidin-1-yl)(1-(4-methoxyphenyl)-1H-pyrrolo[2,3-b]pyridin-5-yl)methanone] and `COc1ccc(-n2ccc3cc(C(=O)N4CCCCC4)cnc32)cc1` [A-146] cannot be ordered by pIC50: greater than 7.00 for the first, greater than 7.00 for the second.

`COCCNC(=O)c1ccc(-n2ccc3cc(C(=O)N4CCCCC4)cnc32)cc1` [A-139] and `CN(C)C(=O)c1ccc(-n2ccc3cc(C(=O)N4CCCCC4)cnc32)cc1` [A-141] cannot be ordered by pIC50: greater than 7.00 for the first, greater than 7.00 for the second.

`COc1cncc(-n2ccc3cc(C(=O)N4CCCCC4)cnc32)c1` [A-145] and `Nc1cncc(-n2ccc3cc(C(=O)N4CCCCC4)cnc32)c1` [A-156] cannot be ordered by pIC50: greater than 7.00 for the first, greater than 7.00 for the second.

`N#Cc1ccc(-n2ccc3cc(C(=O)N4CCCCC4)cnc32)cc1` [A-147] and `N#Cc1cccc(-n2ccc3cc(C(=O)N4CCCCC4)cnc32)c1` [A-148] cannot be ordered by pIC50: greater than 7.00 for the first, greater than 7.00 for the second.

`CN(C)c1cccc(-n2ccc3cc(C(=O)N4CCCCC4)cnc32)c1` [A-149] and `O=C(c1cnc2c(ccn2-c2cccc(CO)c2)c1)N1CCCCC1` [A-164] cannot be ordered by pIC50: greater than 7.00 for the first, greater than 7.00 for the second.

`CCOc1ccc(-n2ccc3cc(C(=O)N4CCCCC4)cnc32)cc1` [A-151] and `NCc1ccc(-n2ccc3cc(C(=O)N4CCCCC4)cnc32)cc1` [A-162] cannot be ordered by pIC50: greater than 7.00 for the first, greater than 7.00 for the second.

`CS(=O)(=O)c1cccc(-n2ccc3cc(C(=O)N4CCCCC4)cnc32)c1` [A-152] and `CS(=O)(=O)c1ccc(-n2ccc3cc(C(=O)N4CCCCC4)cnc32)cc1` [A-153] cannot be ordered by pIC50: greater than 7.00 for the first, greater than 7.00 for the second.

`COc1ccc(-n2ccc3cc(C(=O)N4CCCCC4)cnc32)cn1` [A-157] and `O=C(c1cnc2c(ccn2-c2ccc(CO)cc2)c1)N1CCCCC1` [A-163] cannot be ordered by pIC50: greater than 7.00 for the first, greater than 7.00 for the second.

`NC(=O)c1cccc(-n2ccc3cc(C(=O)N4CCCCC4)cnc32)c1` [A-160] and `COc1cccc(-n2cc(Cl)c3cc(C(=O)N4CCCCC4)cnc32)c1` [A-169] cannot be ordered by pIC50: greater than 7.00 for the first, greater than 7.00 for the second.

`COc1ccc(-n2cc(Cl)c3cc(C(=O)N4CCC(F)CC4)cnc32)cc1` [A-165, (3-chloro-1-(4-methoxyphenyl)-1H-pyrrolo[2,3-b]pyridin-5-yl)(4-fluoropiperidin-1-yl)methanone] and `COc1ccc(-n2cc(Cl)c3cc(C(=O)N4CCCCC4)cnc32)cc1` [A-166] cannot be ordered by pIC50: greater than 7.00 for the first, greater than 7.00 for the second.

`O=C(c1cnc2c(c1)c(Cl)cn2-c1ccc2c(c1)OC(F)(F)O2)N1CCC(F)CC1` [A-167] and `O=C(c1cnc2c(c1)c(Cl)cn2-c1ccc2c(c1)OC(F)(F)O2)N1CCCCC1` [A-168] cannot be ordered by pIC50: greater than 7.00 for the first, greater than 7.00 for the second.

`O=C(c1cnc2c(c1)c(Cl)cn2-c1cncc(Cl)c1)N1CCCCC1` [A-170] and `COc1cncc(-n2cc(Cl)c3cc(C(=O)N4CCCCC4)cnc32)c1` [A-171] cannot be ordered by pIC50: greater than 7.00 for the first, greater than 7.00 for the second.

Compared with `O=C(c1cnc2c(c(Cl)cn2-c2cnccn2)c1Cl)N1CCC(F)CC1` [A-173], `Cc1nc2c(cc1C(=O)N1CCC(F)CC1)c(Cl)cn2-c1cnccn1` [A-175] is lower in pIC50: greater than 7.00 for the first, no more than 6.00 for the second.

`Cc1nc2c(ccn2-c2cnccn2)cc1C(=O)N1CCC(F)CC1` [A-174] and `CCC(CC)n1cnc2cc(C(=O)N3CCC(F)CC3)cnc21` [A-176] cannot be ordered by pIC50: no more than 6.00 for the first, no more than 6.00 for the second.

`O=C(c1cnc2c(c1)ncn2-c1ccc(F)cc1)N1CCCCC1` [A-178] and `O=C(c1cnc2c(c1)ncn2-c1ccc(F)c(F)c1)N1CCCCC1` [A-180] cannot be ordered by pIC50: greater than 7.00 for the first, greater than 7.00 for the second.
